Data taken from patent publication US11578084B2, “Condensed ring compounds having dopamine D3 receptor antagonistic effect” (Shionogi & Co., Ltd., priority 2018, dated 2023).
Where two headings read alike, the source gives them in different places.

Assays:
[1] = molecular target: human recombinant dopamine D3 receptor (Homo sapiens (Human), UniProt P35462); test: Test of binding inhibition for dopamine D3 receptor ([3H]-Methylspiperone SPA); conditions: Jump-In HEK cell membranes, 2 nM [3H]-Methylspiperone, 120 min at 25° C.; read-out: hD3_Ki
Protocol: (§1) (Experimental Conditions)
Cell membranes: Jump-In HEK cell membranes expressing human recombinant dopamine D3 receptor (4 μg/well)
(§2) Non-specific ligand: (final concentration) 10 μM Butaclamol [(+)-Butaclamol Hydrochloride, D033, Sigma]
(§3) SPA beads solution: SPA beads [WGA PVT SPA Scintillation Beads, RPNQ0001 (500 mg), RPNQ0060 (2 g), PerkinElmer] (0.2 mg/well)
(§4) Incubation time and temperature: 120 min at 25° C.
(§5) Butaclamol or the compounds of the present invention were weighed and DMSO was added to make a 10 mM solution. This solution was diluted to each concentration.
[^3H]-Methylspiperone was weighed and the buffer solution was added to make a 6 nM solution.
(§6) SPA beads were weighed and stirred in water to make a 50 mg/mL solution. Using this solution, a mixture with the cell membranes was prepared.
(§7) Jump-In HEK Cell membranes (final reaction amount: 4 μg protein/well), the SPA beads solution (final reaction amount: 0.2 mg/well) and the buffer solution were mixed and the mixed solution was left still for 1 hour or more at 4° C. Then, 50 μL of the mixture was added to each well of the plate. In addition, 25 μL of 6 nM [^3H]-Methylspiperone (final concentration: 2 nM) was added to each well. […] Non-specific binding was calculated based on the radioactivity of [^3H]-Methylspiperone in the presence of 10 μM non-labeled Butaclamol. The total binding was calculated using the radioactivity of [H]-Methylspiperone in the absence of the compounds of the present invention (vehicle). The Ki values were calculated from dose-response curves.
(§8) Binding activities of the compounds of the present invention were calculated from the following Binding Inhibition Rate (%): Inhibition Rate (%)=[1−(c−a)/(b−a)]×100 • a: Average cpm of non-specific binding • b: Average cpm of total binding • c: Cpm in the presence of each test compound

[2] = molecular target: human recombinant dopamine D2 receptor (Homo sapiens (Human), UniProt P14416); test: Test of binding inhibition for dopamine D2 receptor ([3H]-Methylspiperone SPA); conditions: Jump-In HEK cell membranes, read-out: hD2_Ki
Protocol: as §1
Cell membranes: Jump-In HEK cell membranes expressing human recombinant dopamine D2 receptor (2 μg/well)
as §2, §3, §4, §5, §6
as §7, with “amount: 2” for “amount: 4”, “were mixed,” for “were mixed”, “plate.” for “plate. In addition, 25 μL of 6 nM [^3H]-Methylspiperone (final concentration: 2 nM) was added to each well.”, “of [^3H]-Methylspiperone” for “of [H]-Methylspiperone”, “invention (Vehicle).” for “invention (vehicle).”
as §8

[3] = 1.2 nM [3H]-Methylspiperone, 120 min at 25° C.

human recombinant dopamine D2 receptor, sequence (P14416 whole entry): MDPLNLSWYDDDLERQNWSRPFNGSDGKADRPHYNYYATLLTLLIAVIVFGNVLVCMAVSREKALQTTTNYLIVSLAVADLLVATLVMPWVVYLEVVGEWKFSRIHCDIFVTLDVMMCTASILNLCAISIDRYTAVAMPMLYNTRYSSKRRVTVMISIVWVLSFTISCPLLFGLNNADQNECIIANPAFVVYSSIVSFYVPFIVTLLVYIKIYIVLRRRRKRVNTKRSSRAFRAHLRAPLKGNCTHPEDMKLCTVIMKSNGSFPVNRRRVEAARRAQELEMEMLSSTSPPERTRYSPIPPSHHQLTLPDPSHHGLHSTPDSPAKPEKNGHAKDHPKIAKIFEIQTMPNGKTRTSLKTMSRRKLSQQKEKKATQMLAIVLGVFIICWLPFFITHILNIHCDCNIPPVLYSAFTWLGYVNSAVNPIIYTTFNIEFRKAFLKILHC
human recombinant dopamine D3 receptor, sequence (P35462 whole entry): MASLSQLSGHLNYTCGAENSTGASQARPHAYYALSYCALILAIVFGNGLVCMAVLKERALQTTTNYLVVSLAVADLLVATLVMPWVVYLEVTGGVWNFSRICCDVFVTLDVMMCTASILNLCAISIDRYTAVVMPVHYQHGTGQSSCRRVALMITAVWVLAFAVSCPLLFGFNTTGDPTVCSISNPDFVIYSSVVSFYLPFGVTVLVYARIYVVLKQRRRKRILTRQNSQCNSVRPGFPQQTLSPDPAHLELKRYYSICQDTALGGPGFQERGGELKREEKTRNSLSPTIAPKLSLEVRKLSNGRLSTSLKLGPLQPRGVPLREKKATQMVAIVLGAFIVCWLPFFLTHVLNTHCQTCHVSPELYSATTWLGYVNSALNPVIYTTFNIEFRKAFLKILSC

With `C[C@@H](Oc1ccc2c(n1)CCN(CC[C@H]1CC[C@H](NC(=O)Cc3cnn(C)n3)CC1)CC2)C(F)(F)F` [Example I-128] the Ki [1] was 0.073 nM and the Ki [2, 3] was 510 nM.

For `Cc1nnc(CC(=O)N[C@H]2CC[C@H](CCN3CCc4ccc(O[C@H](C)C(F)(F)F)nc4CC3)CC2)s1` [Example I-129], the Ki [1] was 0.085 nM and the Ki [2, 3] was 290 nM.

Molecule `Cc1nc(CC(=O)N[C@H]2CC[C@H](CCN3CCc4ccc(O[C@H](C)C(F)(F)F)nc4CC3)CC2)nn1C` [Example I-130] has a Ki [1] of 0.49 nM and a Ki [2, 3] of 1200 nM.

Molecule `Cc1ncc(CC(=O)N[C@H]2CC[C@H](CCN3CCc4ccc(O[C@H](C)C(F)(F)F)nc4CC3)CC2)cn1` [Example I-131] has a Ki [1] of 0.35 nM and a Ki [2, 3] of 410 nM.

For `C[C@@H](Oc1ccc2c(n1)CCN(CC[C@H]1CC[C@H](NC(=O)c3cccc(=O)n3C)CC1)CC2)C(F)(F)F` [Example I-132], the Ki [1] was 0.12 nM and the Ki [2, 3] was 300 nM.

With `C[C@@H](Oc1ccc2c(n1)CCN(CC[C@H]1CC[C@H](NC(=O)COc3cnn(C)c3)CC1)CC2)C(F)(F)F` [Example I-133] the Ki [1] was 0.15 nM and the Ki [2, 3] was 190 nM.

Work on `Cc1cnc(CC(=O)N[C@H]2CC[C@](F)(CCN3CCc4ccc(CCC(F)(F)F)nc4CC3)CC2)o1` [Example I-141] yielded a Ki [1] of 0.41 nM and a Ki [2, 3] of over 2300 nM.

`Cn1ncc(CC(=O)N[C@H]2CC[C@](F)(CCN3CCc4ccc(CCC(F)(F)F)nc4CC3)CC2)n1` [Example I-144] was tested, and the Ki [1] was 0.32 nM and the Ki [2, 3] was 1500 nM.

`O=C(N[C@H]1CC[C@](F)(CCN2CCc3nc(OCC(F)(F)F)sc3CC2)CC1)c1cccnc1C(F)F` [Example I-159] gave a Ki [1] of 0.36 nM and a Ki [2, 3] of 580 nM.

`O=C(N[C@H]1CC[C@](F)(CCN2CCc3nc(OCC(F)F)sc3CC2)CC1)c1cccnc1C(F)F` [Example I-160] showed a Ki [1] of 0.83 nM and a Ki [2, 3] of 1100 nM.

With `O=C(N[C@H]1CC[C@H](CCN2CCc3nc(OCC(F)F)sc3CC2)CC1)c1cccnc1C(F)F` [Example I-161] the Ki [1] was 0.32 nM and the Ki [2, 3] was 940 nM.

In the case of `CC(F)(F)COc1nc2c(s1)CCN(CC[C@]1(F)CC[C@@H](NC(=O)c3cccnc3C(F)F)CC1)CC2` [Example I-162], the Ki [1] is reported as 0.56 nM and the Ki [2, 3] is reported as 740 nM.

Molecule `CC(F)(F)COc1nc2c(s1)CCN(CC[C@H]1CC[C@H](NC(=O)c3cccnc3C(F)F)CC1)CC2` [Example I-163] has a Ki [1] of 0.31 nM and a Ki [2, 3] of 430 nM.

For `O=C(N[C@H]1CC[C@H](CCN2CCc3nc(OC4CC(F)(F)C4)sc3CC2)CC1)c1cccnc1C(F)F` [Example I-168], the Ki [1] was 0.31 nM and the Ki [2, 3] was 1000 nM.

For `C[C@@H](Oc1ccc2c(n1)CCN(CC[C@]1(F)CC[C@@H](NC(=O)Cc3cnn(C)n3)CC1)CC2)C(F)(F)F` [Example I-174], the Ki [1] was 0.33 nM and the Ki [2, 3] was 370 nM.

For `Cc1nc(CC(=O)N[C@H]2CC[C@](F)(CCN3CCc4ccc(O[C@H](C)C(F)(F)F)nc4CC3)CC2)nn1C` [Example I-180], the Ki [1] was 0.85 nM and the Ki [2, 3] was 850 nM.

`Cn1c(C(=O)NC23CCC(CCN4CCc5nc(OCC(F)(F)F)sc5CC4)(CC2)CC3)cccc1=O` [II-1] gave a Ki [1] of 0.17 nM and a Ki ([2]; [3H]-Methylspiperone 1.2 nM) of 830 nM.

For `CN1Cc2c(C(=O)NC34CCC(CCN5CCc6nc(OCC(F)(F)F)sc6CC5)(CC3)CC4)cccc2C1=O` [II-2], the Ki [1] was 0.079 nM and the Ki ([2]; [3H]-Methylspiperone 1.2 nM) was over 2200 nM.

In the case of `O=C(NC12CCC(CCN3CCc4nc(OCC(F)(F)F)sc4CC3)(CC1)CC2)c1cccnc1C(F)F` [II-3], the Ki [1] is reported as 0.29 nM and the Ki ([2]; [3H]-Methylspiperone 1.2 nM) is reported as 1400 nM.

`Cn1ncc(CC(=O)NC23CCC(CCN4CCc5nc(OCC(F)(F)F)sc5CC4)(CC2)CC3)n1` [II-4] was tested, and the Ki [1] was 0.16 nM and the Ki ([2]; [3H]-Methylspiperone 1.2 nM) was 1400 nM.

Molecule `Cc1nnc(CC(=O)NC23CCC(CCN4CCc5nc(OCC(F)(F)F)sc5CC4)(CC2)CC3)o1` [II-5] has a Ki [1] of 0.2 nM and a Ki ([2]; [3H]-Methylspiperone 1.2 nM) of 1300 nM.

`Cc1ncc(CC(=O)NC23CCC(CCN4CCc5nc(OCC(F)(F)F)sc5CC4)(CC2)CC3)cn1` [II-6] showed a Ki [1] of 0.35 nM and a Ki ([2]; [3H]-Methylspiperone 1.2 nM) of 1200 nM.

`Cc1ncccc1C(=O)NC12CCC(CCN3CCc4nc(OCC(F)(F)F)sc4CC3)(CC1)CC2` [II-7] gave a Ki [1] of 0.39 nM and a Ki ([2]; [3H]-Methylspiperone 1.2 nM) of 1700 nM.

Molecule `CN1Cc2c(C(=O)NC34CCC(CCN5CCc6nc(OCC(F)F)sc6CC5)(CC3)CC4)cccc2C1=O` [II-10] has a Ki [1] of 0.5 nM and a Ki ([2]; [3H]-Methylspiperone 1.2 nM) of over 2300 nM.

`Cc1ncccc1C(=O)NC12CCC(CCN3CCc4ccc(OCC(F)F)nc4CC3)(CC1)CC2` [II-13] gave a Ki [1] of 0.56 nM and a Ki ([2]; [3H]-Methylspiperone 1.2 nM) of 2100 nM.

With `Cc1cnc(CC(=O)NC23CCC(CCN4CCc5ccc(OCC(C)(F)F)nc5CC4)(CC2)CC3)o1` [II-14] the Ki [1] was 0.23 nM and the Ki ([2]; [3H]-Methylspiperone 1.2 nM) was 760 nM.

Molecule `Cc1ncc(/C=C/C(=O)NC23CCC(CCN4CCc5nc(OCC(F)(F)F)sc5CC4)(CC2)CC3)cn1` [II-15] has a Ki [1] of 0.16 nM and a Ki ([2]; [3H]-Methylspiperone 1.2 nM) of 240 nM.

`Cc1nnc(CC(=O)N[C@H]2CC[C@](F)(CCN3CCc4ccc(CCC(F)(F)F)nc4CC3)CC2)s1` [III-1] was tested, and the Ki [1] was 0.14 nM and the Ki [2, 3] was over 2300 nM.

`Cc1nc(CC(=O)N[C@H]2CC[C@](F)(CCN3CCc4ccc(CCC(F)(F)F)nc4CC3)CC2)nn1C` [III-2] was tested, and the Ki [1] was 0.16 nM and the Ki [2, 3] was 1200 nM.

In the case of `Cc1cc(CC(=O)N[C@H]2CC[C@](F)(CCN3CCc4ccc(CCC(F)(F)F)nc4CC3)CC2)on1` [III-3], the Ki [1] is reported as 0.029 nM and the Ki [2, 3] is reported as over 2300 nM.

In the case of `Cc1nnc(CC(=O)N[C@H]2CC[C@H](CCN3CCc4nc(O[C@@H](C)C(F)(F)F)sc4CC3)CC2)o1` [III-4], the Ki [1] is reported as 0.16 nM and the Ki [2, 3] is reported as 780 nM.

For `C[C@H](Oc1nc2c(s1)CCN(CC[C@H]1CC[C@H](NC(=O)c3cccc(=O)n3C)CC1)CC2)C(F)(F)F` [III-5], the Ki [1] was 0.23 nM and the Ki [2, 3] was 1000 nM.

With `C[C@H](Oc1nc2c(s1)CCN(CC[C@H]1CC[C@H](NC(=O)Cc3cnn(C)n3)CC1)CC2)C(F)(F)F` [III-6] the Ki [1] was 0.15 nM and the Ki [2, 3] was 1600 nM.

With `Cc1nnc(CC(=O)N[C@H]2CC[C@H](CCN3CCc4ccc(O[C@@H](C)C(F)(F)F)nc4CC3)CC2)o1` [III-7] the Ki [1] was 0.09 nM and the Ki [2, 3] was 290 nM.

For `Cc1nnc(CC(=O)N[C@H]2CC[C@](F)(CCN3CCc4nc(OCC(F)(F)C(F)F)sc4CC3)CC2)o1` [III-8], the Ki [1] was 0.16 nM and the Ki [2, 3] was 480 nM.

With `Cn1ncc(CC(=O)N[C@H]2CC[C@](F)(CCN3CCc4nc(OCC(F)(F)C(F)F)sc4CC3)CC2)n1` [III-9] the Ki [1] was 0.081 nM and the Ki [2, 3] was 770 nM.

`Cc1ncccc1C(=O)N[C@H]1CC[C@H](CCN2CCc3ccc(CCC(F)(F)F)nc3CC2)CC1` [I′-1] was tested, and the Ki [1] was 0.43 nM and the Ki ([2]; [3H]-Methylspiperone 1.2 nM) was 920 nM.

`COc1cc(CC(=O)N[C@H]2CC[C@H](CCN3CCc4ccc(CCC(F)(F)F)nc4CC3)CC2)on1` [I′-2] was tested, and the Ki [1] was 0.21 nM and the Ki ([2]; [3H]-Methylspiperone 1.2 nM) was over 2300 nM.

`Cc1nnc(CC(=O)N[C@H]2CC[C@H](CCN3CCc4ccc(CCC(F)(F)F)nc4CC3)CC2)o1` [I′-3] was tested, and the Ki [1] was 0.18 nM and the Ki ([2]; [3H]-Methylspiperone 1.2 nM) was 1100 nM.

`Cn1cc(CC(=O)N[C@H]2CC[C@H](CCN3CCc4ccc(CCC(F)(F)F)nc4CC3)CC2)cn1` [I′-4] showed a Ki [1] of 0.22 nM and a Ki ([2]; [3H]-Methylspiperone 1.2 nM) of 1200 nM.

Molecule `Cn1c(C(=O)N[C@H]2CC[C@H](CCN3CCc4ccc(CCC(F)(F)F)nc4CC3)CC2)cccc1=O` [I′-5] has a Ki [1] of 0.22 nM and a Ki ([2]; [3H]-Methylspiperone 1.2 nM) of 610 nM.

`Cc1ncc(OCC(=O)N[C@H]2CC[C@H](CCN3CCc4ccc(CCC(F)(F)F)nc4CC3)CC2)cn1` [I′-7] was tested, and the Ki [1] was 0.12 nM and the Ki ([2]; [3H]-Methylspiperone 1.2 nM) was 1100 nM.

With `Cc1cc(OCC(=O)N[C@H]2CC[C@H](CCN3CCc4ccc(CCC(F)(F)F)nc4CC3)CC2)no1` [I′-8] the Ki [1] was 0.071 nM and the Ki ([2]; [3H]-Methylspiperone 1.2 nM) was over 2300 nM.

`Cn1cc2c(C(=O)N[C@H]3CC[C@H](CCN4CCc5ccc(CCC(F)(F)F)nc5CC4)CC3)ccc(F)c2n1` [I′-9] was tested, and the Ki [1] was 0.11 nM and the Ki ([2]; [3H]-Methylspiperone 1.2 nM) was 530 nM.

Work on `Cc1ncc(CC(=O)N[C@H]2CC[C@H](CCN3CCc4ccc(CCC(F)(F)F)nc4CC3)CC2)o1` [I′-10] yielded a Ki [1] of 0.23 nM and a Ki ([2]; [3H]-Methylspiperone 1.2 nM) of 1100 nM.
